Converted amounts (≈) assume the structure as drawn. Numbered stars: 1 amine (or outer) side, 2 acyl side, 3 side chain; on linkers, the order of the positions; unused ones are H or OH. Bridge positions count the residues as written; N and C are the ends. Square brackets hold non-standard residues; d marks the D form. Peptide text beside a SMILES is read from it. * marks the point of attachment. pTerphenylCO(4''-OnC5H11) = CCCCCOc1ccc(-c2ccc(-c3ccc(C(=O)*)cc3)cc2)cc1; Orn(4R-OH,5R-OH) = O=C([C@H](C[C@@H](O)[C@@H](O)N[*:3])N[*:1])[*:2]; hTyr(3S-OH,4S-OH) = N[C@H](C(=O)O)[C@H](O)[C@@H](O)c1ccc(O)cc1; Pro(3S-OH,4S-Me) = C[C@H]1CN[C@H](C(=O)O)[C@H]1O; Hyp = O=C(O)[C@@H]1C[C@@H](O)CN1 Some results are limits rather than exact numbers.

Experimental findings from ChEMBL document CHEMBL1275424, “In vitro activity of anidulafungin against Candida albicans biofilms” (2008) are described below.

Common to all, as to type: functional
The subject of experiment [1] is Candida albicans. Put plainly: Antimicrobial activity against Candida albicans grown as planktonic cell after 24 hrs by broth microdilution method. Background: Broth dilution looks for growth in wells or tubes with falling amounts of substance.
Experiment [2] has as its system Candida albicans. Put plainly: Antimicrobial activity against Candida albicans GDH2346 grown as sessile cell after 48 hrs by broth microdilution method. The following applies: GDH2346, 48 h.
Experiment [3] deals with Candida albicans. Put plainly: Antimicrobial activity against Candida albicans grown as sessile cell after 48 hrs by broth microdilution method.
In experiment [4] the test system is Candida albicans. Put plainly: Antimicrobial activity against Candida albicans grown as planktonic cell after 48 hrs by broth microdilution method.
The test system of experiment [5] is Candida albicans. Put plainly: Antimicrobial activity against Candida albicans grown as planktonic cell by broth microdilution method.

On to `CCCCCOc1ccc(-c2ccc(-c3ccc(C(=O)N[C@H]4C[C@@H](O)[C@@H](O)NC(=O)[C@@H]5[C@@H](O)[C@@H](C)CN5C(=O)[C@H]([C@@H](C)O)NC(=O)[C@H]([C@H](O)[C@@H](O)c5ccc(O)cc5)NC(=O)[C@@H]5C[C@@H](O)CN5C(=O)[C@H]([C@@H](C)O)NC4=O)cc3)cc2)cc1` [ANIDULAFUNGIN] ({pTerphenylCO(4''-OnC5H11)}-[Orn(4R-OH,5R-OH)]T[Hyp][hTyr(3S-OH,4S-OH)]T[Pro(3S-OH,4S-Me)]; lactam 1-C), for which the MIC – broadly, the lowest concentration found to suppress growth – is 0.125 µg/mL (≈ 0.11 µM) against Candida albicans [1]; no more than 0.03 µg/mL in the experiment with Candida albicans [2]; greater than 0.03 µg/mL in the experiment on Candida albicans [3]; no more than 0.5 µg/mL with Candida albicans [4]; no more than 0.03 µg/mL in the experiment on Candida albicans [5]. In the experiment with Candida albicans [5], the MIC50 – broadly, the lowest concentration that inhibits either 50% of growth or 50% of the strains tested, depending on the study – is no more than 0.03 µg/mL. The MIC90 (usually an inhibitory concentration at the 90% level, which refers to growth in some studies and to a panel of isolates in others) against Candida albicans [5] came to 0.125 µg/mL (≈ 0.11 µM).
`C[C@@H](c1ncncc1F)[C@](O)(Cn1cncn1)c1ccc(F)cc1F` [VORICONAZOLE] showed an MIC90 in the experiment with Candida albicans [5] greater than 0.06 µg/mL.
For the compound `CC[C@H](C)C[C@H](C)CCCCCCCCC(=O)N[C@H]1C[C@@H](O)[C@@H](NCCN)NC(=O)[C@@H]2[C@@H](O)CCN2C(=O)[C@H]([C@H](O)CCN)NC(=O)[C@H]([C@H](O)[C@@H](O)c2ccc(O)cc2)NC(=O)[C@@H]2C[C@@H](O)CN2C(=O)[C@H]([C@@H](C)O)NC1=O` [CASPOFUNGIN], the MIC90 with Candida albicans [5] was determined as 0.5 µg/mL (≈ 0.457 µM).
The same measure, in the same setting: for `C[C@@H]1[C@H](O)[C@@H](C)/C=C/C=C/C=C/C=C/C=C/C=C/C=C/[C@H](O[C@@H]2O[C@H](C)[C@@H](O)[C@H](N)[C@@H]2O)C[C@@H]2O[C@](O)(C[C@@H](O)C[C@@H](O)[C@H](O)CC[C@@H](O)C[C@@H](O)CC(=O)O[C@H]1C)C[C@H](O)[C@H]2C(=O)O` [AMPHOTERICIN B] the value was 0.25 µg/mL (≈ 0.271 µM).
